Source: patent US10906873B2, “Substituted cyclic amides as herbicides” (FMC Corporation, priority 2015, dated 2021)

Experiments:
Type in all cases: in vivo
[1] = system: wheat (Triticum aestivum); assay: Test A postemergence, wheat; conditions: 0 to 100 scale
Outline: (§1)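 Test chemicals in non-phytotoxic solvent with surfactant applied either as a directed preemergence soil spray on seeds planted in loam soil-sand blend or as a postemergence spray onto plants 2-10 cm tall at one- to two-leaf stage grown in the same blend. Kept ~10 d in greenhouse, then injury rated visually against untreated controls on 0 (no effect) to 100 (complete control) scale.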

[2] = system: ryegrass, It. (Italian ryegrass, Lolium multiflorum); assay: Test A preemergence, ryegrass, It.; conditions: 0 to 100 scale
Outline: as §1

[3] = system: pigweed (Amaranthus retroflexus); assay: Test A preemergence, pigweed; conditions: 0 to 100 scale
Outline: as §1

[4] = system: pigweed (Amaranthus retroflexus); assay: Test A postemergence, pigweed; conditions: 0 to 100 scale
Outline: as §1

[5] = system: sedge, umbrella (small-flower umbrella sedge, Cyperus difformis); assay: Test B flooded paddy test, sedge, umbrella; conditions: Flood, scale of 0 to 100 where 0 is no effect and 100 is complete control, 13 to 15 d
Outline: (§2)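 Plants grown to the 2-leaf stage. At treatment, pots were flooded to 3 cm above the soil, compound was applied directly to the paddy water, and that depth was held throughout. After 13 to 15 d in the greenhouse, response was rated visually against controls on a 0 (no effect) to 100 (complete control) scale.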

kochia (Kochia scoparia) [6] = assay: Test A postemergence, kochia; conditions: 0 to 100 scale
Outline: as §1

[7] = system: blackgrass (Alopecurus myosuroides); assay: Test A postemergence, blackgrass; conditions: 0 to 100 scale
Outline: as §1

corn (Zea mays) = assay: Test A postemergence, corn; conditions: 0 to 100 scale
Outline: as §1

rice (Oryza sativa) = assay: Test B flooded paddy test, rice; conditions: Flood, scale of 0 to 100 where 0 is no effect and 100 is complete control, 13 to 15 d
Outline: as §2

[8] = system: barnyardgrass (Echinochloa crus-galli); assay: Test A preemergence, barnyardgrass; conditions: 0 to 100 scale
Outline: as §1

[9] = system: barnyardgrass (Echinochloa crus-galli); assay: Test B flooded paddy test, barnyardgrass; conditions: Flood, scale of 0 to 100 where 0 is no effect and 100 is complete control, 13 to 15 d
Outline: as §2

[10] = system: foxtail, giant (giant foxtail, Setaria faberii); assay: Test A preemergence, foxtail, giant; conditions: 0 to 100 scale
Outline: as §1

[11] = system: ryegrass, It. (Italian ryegrass, Lolium multiflorum); assay: Test A postemergence, ryegrass, It.; conditions: 0 to 100 scale
Outline: as §1

[12] = system: ragweed (common ragweed, Ambrosia elatior); assay: Test A preemergence, ragweed; conditions: 0 to 100 scale
Outline: as §1

[13] = system: barnyardgrass (Echinochloa crus-galli); assay: Test A postemergence, barnyardgrass; conditions: 0 to 100 scale
Outline: as §1

[14] = system: ducksalad (Heteranthera limosa); assay: Test B flooded paddy test, ducksalad; conditions: Flood, scale of 0 to 100 where 0 is no effect and 100 is complete control, 13 to 15 d
Outline: as §2

kochia (Kochia scoparia) [15] = assay: Test A preemergence, kochia; conditions: 0 to 100 scale
Outline: as §1

[16] = system: galium (catchweed bedstraw, Galium aparine); assay: Test A postemergence, galium; conditions: 0 to 100 scale
Outline: as §1

[17] = system: ragweed (common ragweed, Ambrosia elatior); assay: Test A postemergence, ragweed; conditions: 0 to 100 scale
Outline: as §1

[18] = system: foxtail, giant (giant foxtail, Setaria faberii); assay: Test A postemergence, foxtail, giant; conditions: 0 to 100 scale
Outline: as §1

Row | Compound | Plant response rating, Wheat ([1]; 125 g ai/ha) | Plant response rating, Wheat ([1]; 500 g ai/ha) | Plant response rating, Ryegrass, It. ([2]; 125 g ai/ha) | Plant response rating, Ryegrass, It. ([2]; 500 g ai/ha) | Plant response rating, Pigweed ([3]; 125 g ai/ha) | Plant response rating, Pigweed ([3]; 500 g ai/ha) | Plant response rating, Pigweed ([4]; 125 g ai/ha) | Plant response rating, Pigweed ([4]; 500 g ai/ha) | Plant response rating, Kochia (kochia (Kochia scoparia) [6]; 125 g ai/ha) | Plant response rating, Kochia (kochia (Kochia scoparia) [6]; 500 g ai/ha) | Plant response rating, Blackgrass ([7]; 125 g ai/ha) | Plant response rating, Blackgrass ([7]; 500 g ai/ha) | Plant response rating, Corn (corn (Zea mays); 125 g ai/ha) | Plant response rating, Corn (corn (Zea mays); 500 g ai/ha) | Plant response rating, Barnyardgrass ([8]; 125 g ai/ha) | Plant response rating, Barnyardgrass ([8]; 500 g ai/ha) | Plant response rating, Foxtail, Giant ([10]; 125 g ai/ha) | Plant response rating, Foxtail, Giant ([10]; 500 g ai/ha) | Plant response rating, Ryegrass, It. ([11]; 125 g ai/ha) | Plant response rating, Ryegrass, It. ([11]; 500 g ai/ha) | also measured
1 | O=C1NCC(Cc2ccc(F)c(F)c2)C1C(=O)Nc1cccc(F)c1F (stereo not drawn) [Compound 12] | 0 | 0 | 0 | 0 | 0 | 0 | 0 | 0 | 0 | 0 | 0 | 0 | 0 | 0 | 0 | 60 | 0 | 60 | 0 | 0 | Plant response rating, Sedge, Umbrella ([5]; 500 g ai/ha): 0; Plant response rating, Rice (rice (Oryza sativa); 500 g ai/ha): 0; Plant response rating, Barnyardgrass ([9]; 500 g ai/ha): 0; Plant response rating, Ragweed ([12]; 125 g ai/ha): 0; Plant response rating, Ragweed ([12]; 500 g ai/ha): 0; Plant response rating, Barnyardgrass ([13]; 125 g ai/ha): 0; Plant response rating, Barnyardgrass ([13]; 500 g ai/ha): 0; Plant response rating, Ducksalad ([14]; 500 g ai/ha): 0; Plant response rating, Kochia (kochia (Kochia scoparia) [15]; 125 g ai/ha): 0; Plant response rating, Kochia (kochia (Kochia scoparia) [15]; 500 g ai/ha): 0; Plant response rating, Galium ([16]; 125 g ai/ha): 0; Plant response rating, Galium ([16]; 500 g ai/ha): 0; Plant response rating, Ragweed ([17]; 125 g ai/ha): 0; Plant response rating, Ragweed ([17]; 500 g ai/ha): 0; Plant response rating, Foxtail, Giant ([18]; 125 g ai/ha): 0; Plant response rating, Foxtail, Giant ([18]; 500 g ai/ha): 0
2 | O=C(CCC1CNC(=O)C1C(=O)Nc1ccccc1F)Nc1ccc(F)cc1 (stereo not drawn) [Compound 15] | 0 | 0 | 0 | 0 | 0 | 0 | 0 | 0 | 0 | 0 | 0 | 0 | 0 | 0 | 0 | 0 | 0 | 0 | 0 | 0 | Plant response rating, Sedge, Umbrella ([5]; 500 g ai/ha): 0; Plant response rating, Rice (rice (Oryza sativa); 500 g ai/ha): 0; Plant response rating, Barnyardgrass ([9]; 500 g ai/ha): 0; Plant response rating, Ragweed ([12]; 125 g ai/ha): 0; Plant response rating, Ragweed ([12]; 500 g ai/ha): 0; Plant response rating, Barnyardgrass ([13]; 125 g ai/ha): 0; Plant response rating, Barnyardgrass ([13]; 500 g ai/ha): 0; Plant response rating, Ducksalad ([14]; 500 g ai/ha): 70; Plant response rating, Kochia (kochia (Kochia scoparia) [15]; 125 g ai/ha): 0; Plant response rating, Kochia (kochia (Kochia scoparia) [15]; 500 g ai/ha): 0; Plant response rating, Galium ([16]; 125 g ai/ha): 0; Plant response rating, Galium ([16]; 500 g ai/ha): 0; Plant response rating, Ragweed ([17]; 125 g ai/ha): 0; Plant response rating, Ragweed ([17]; 500 g ai/ha): 0; Plant response rating, Foxtail, Giant ([18]; 125 g ai/ha): 0; Plant response rating, Foxtail, Giant ([18]; 500 g ai/ha): 0
3 | O=C1NCC(C#Cc2ccc(F)cc2)C1C(=O)Nc1cccc(F)c1F (stereo not drawn) [Compound 16] | 0 | 0 | 0 | 0 | 0 | 0 | 0 | 0 | 0 | 0 | 0 | 0 | 0 | 0 | 20 | 90 | 60 | 90 | 0 | 0 | Plant response rating, Sedge, Umbrella ([5]; 250 g ai/ha): 0; Plant response rating, Rice (rice (Oryza sativa); 250 g ai/ha): 0; Plant response rating, Barnyardgrass ([9]; 250 g ai/ha): 0; Plant response rating, Ragweed ([12]; 125 g ai/ha): 0; Plant response rating, Ragweed ([12]; 500 g ai/ha): 0; Plant response rating, Barnyardgrass ([13]; 125 g ai/ha): 40; Plant response rating, Barnyardgrass ([13]; 500 g ai/ha): 60; Plant response rating, Ducksalad ([14]; 250 g ai/ha): 70; Plant response rating, Kochia (kochia (Kochia scoparia) [15]; 125 g ai/ha): 0; Plant response rating, Kochia (kochia (Kochia scoparia) [15]; 500 g ai/ha): 0; Plant response rating, Galium ([16]; 125 g ai/ha): 0; Plant response rating, Galium ([16]; 500 g ai/ha): 0; Plant response rating, Ragweed ([17]; 125 g ai/ha): 0; Plant response rating, Ragweed ([17]; 500 g ai/ha): 0; Plant response rating, Foxtail, Giant ([18]; 125 g ai/ha): 20; Plant response rating, Foxtail, Giant ([18]; 500 g ai/ha): 40
4 | O=C1NCC(C#Cc2ccc(F)cc2)C1C(=O)Nc1ccc(F)c(F)c1F (stereo not drawn) [Compound 17] | 0 | 0 | 0 | 0 | 0 | 20 | 0 | 0 | 0 | 0 | 0 | 0 | 0 | 0 | 20 | 50 | 30 | 90 | 0 | 0 | Plant response rating, Sedge, Umbrella ([5]; 250 g ai/ha): 0; Plant response rating, Rice (rice (Oryza sativa); 250 g ai/ha): 0; Plant response rating, Barnyardgrass ([9]; 250 g ai/ha): 0; Plant response rating, Ragweed ([12]; 125 g ai/ha): 0; Plant response rating, Ragweed ([12]; 500 g ai/ha): 0; Plant response rating, Barnyardgrass ([13]; 125 g ai/ha): 20; Plant response rating, Barnyardgrass ([13]; 500 g ai/ha): 90; Plant response rating, Ducksalad ([14]; 250 g ai/ha): 70; Plant response rating, Kochia (kochia (Kochia scoparia) [15]; 125 g ai/ha): 0; Plant response rating, Kochia (kochia (Kochia scoparia) [15]; 500 g ai/ha): 0; Plant response rating, Galium ([16]; 125 g ai/ha): 0; Plant response rating, Galium ([16]; 500 g ai/ha): 0; Plant response rating, Ragweed ([17]; 125 g ai/ha): 0; Plant response rating, Ragweed ([17]; 500 g ai/ha): 0; Plant response rating, Foxtail, Giant ([18]; 125 g ai/ha): 0; Plant response rating, Foxtail, Giant ([18]; 500 g ai/ha): 50
